The target in the data set is T1, CYP3A4 (Homo sapiens, UniProt P08684).
T1 construct: human liver microsomes (pool from various individuals); from tissue; host or cells: human liver microsomes (pool from various individuals)
T1 sequence (P08684 whole entry): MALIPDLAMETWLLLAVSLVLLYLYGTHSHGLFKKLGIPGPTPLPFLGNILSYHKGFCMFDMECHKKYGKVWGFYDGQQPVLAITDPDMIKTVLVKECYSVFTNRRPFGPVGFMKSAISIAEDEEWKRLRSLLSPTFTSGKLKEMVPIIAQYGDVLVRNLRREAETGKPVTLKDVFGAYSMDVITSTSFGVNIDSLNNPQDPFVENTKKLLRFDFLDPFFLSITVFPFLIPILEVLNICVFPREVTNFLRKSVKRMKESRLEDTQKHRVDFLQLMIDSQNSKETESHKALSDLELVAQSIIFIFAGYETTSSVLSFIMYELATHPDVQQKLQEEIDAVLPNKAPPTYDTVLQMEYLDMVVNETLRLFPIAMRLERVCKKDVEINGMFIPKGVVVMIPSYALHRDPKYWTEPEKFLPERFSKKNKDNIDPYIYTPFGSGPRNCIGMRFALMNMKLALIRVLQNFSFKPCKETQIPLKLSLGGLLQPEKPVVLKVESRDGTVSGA
The data set can be described thus: Assay to assess irreversible CYP3A4 inhibition (mechanism-based inhibition) in human liver microsomes. The data set is classed as in vitro ADME. The conditions noted are these: 2-20 μM, preincubation 0-50 min, 6β-hydroxytestosterone formation. The text has this:
8. Assay to Assess Irreversible CYP3A4 Inhibition
Cytochrom P450 enzyme inhibition, especially irreversible enzyme inhibition, also referred to as mechanism-based inhibition (MBI), is an unwanted metabolic property of a substance which may, on concurrent administration of other medicaments, lead to considerable drug interactions. Criteria for the presence of an irreversible inhibition are a time-, concentration- and cofactor- (nicotinamide adenine dinucleotide phosphate, NADPH) dependent inhibition. To this end, the compounds of the invention are incubated in vitro with human liver microsomes, the influence on the CYP3A4 activity and the metabolic degradation of the novel active ingredient is determined, and the prototypical parameters kinact, Ki and the partition ratio r are ascertained therefrom.
The compounds of the invention are incubated with concentrations of 2-20 μM. To this end, stock solutions of the active ingredients with a concentration of 0.2-2 mM are prepared in acetonitrile and then pipetted with a 1:100 dilution into the incubation mixture. The liver microsomes are incubated in 50 mM potassium phosphate buffer (pH 7.4) with and without NADPH-generating system consisting of 1 mM NADP^+, 5 mM glucose 6-phosphate and 1 unit of glucose 6-phosphate dehydrogenase, at 37° C. After defined preincubation times of 0-50 min, aliquots are removed from these mixtures, diluted 1:25 in a new incubation, and incubated in the presence of testosterone and new NADPH-generating system again for 20 min. These incubation mixtures are stopped with acetonitrile (final concentration about 30% v/v), and the protein is removed by centrifugation at about 15 000×g. The samples stopped in this way are either analyzed directly or stored at −20° C. until analyzed.
The analysis takes place by high performance liquid chromatography with mass spectrometry detection (LC-MS). The formation of 6β-hydroxytestosterone as measure of CYP3A4 activity, and the test substance still remaining is quantified. The parameters kinact, Ki and the partition ratio r are determined therefrom so as to assess the novel active ingredients in relation to MBI.
As for `CS(=O)(=O)Cc1cccc2c(C(c3ccc(F)cc3)c3ccc(C(F)(F)F)cc3)c[nH]c12` (centres unmarked) [Example 113, 3-{(4-Fluorophenyl) [4-(trifluoromethyl)phenyl]methyl}-7-[(methylsulfonyl)methyl]-1H-indole], the Partition ratio r was above 500.
The result for `CS(=O)(=O)Cc1cccc2c(C3(C4CC4)CCc4cc(F)ccc43)c[nH]c12` (centres unmarked) [Example 107, 3-(1-Cyclopropyl-5-fluoro-2,3-dihydro-1H-inden-1-yl)-7-[(methylsulfonyl)methyl]-1H-indole] reads above 400.
For `CS(=O)(=O)Cc1cccc2c(C(CCC#N)c3ccc4c(c3)OC(F)(F)O4)c[nH]c12` (centres unmarked) [Example 169, 4-(2,2-Difluoro-1,3-benzodioxol-5-yl)-4-{7-[(methylsulfonyl)methyl]-1H-indol-3-yl}butanonitrile] the value was above 500.
As to `CS(=O)(=O)Cc1cccc2c(C(c3ccc(Cl)cc3)C3CC3(F)F)c[nH]c12` (single isomer, unassigned) [Example 261-1, 3-[(4-Chlorophenyl)(2,2-difluorocyclopropyl)methyl]-7-[(methylsulfonyl)methyl]-1H-indole], the Partition ratio r is on record as above 200.
The result for `CCC(CCO)(c1ccc(Cl)cc1)c1c[nH]c2c(CS(C)(=O)=O)cccc12` (centres unmarked) [Example 147, 3-(4-Chlorophenyl)-3-{7-[(methylsulfonyl)methyl]-1H-indol-3-yl}pentan-1-ol] reads 90; that for `CCC(CCC#N)(c1ccc(Cl)cc1)c1c[nH]c2c(CS(C)(=O)=O)cccc12` (centres unmarked) [Example 172, 4-(4-Chlorophenyl)-4-{7-[(methylsulfonyl)methyl]-1H-indol-3-yl}hexanonitrile], 120; that for `CS(=O)(=O)Cc1cccc2c(C(CCC#N)c3ccc4sccc4c3)c[nH]c12` (centres unmarked) [Example 73, 4-(1-Benzothiophen-5-yl)-4-{7-[(methylsulfonyl)methyl]-1H-indol-3-yl}butanonitrile], above 500.
The result for `CS(=O)(=O)Cc1cc(F)cc2c(C(c3ccc(F)cc3Cl)C3CC3C#N)c[nH]c12` (single isomer, unassigned) [Example 266-1, 2-[(2-Chloro-4-fluorophenyl){5-fluoro-7-[(methylsulfonyl)methyl]-1H-indol-3-yl}methyl]cyclopropanecarbonitrile] reads above 200; that for `CS(=O)(=O)Cc1cccc2c(C(CCC#N)c3ccc(Cl)cc3F)c[nH]c12` (single isomer, unassigned) [Example 59-1, 4-(4-Chloro-2-fluorophenyl)-4-{7-[(methylsulfonyl)methyl]-1H-indol-3-yl}butanonitrile], 220.
For `CS(=O)(=O)Cc1cc(F)cc2c(C(c3ccc(Cl)cc3)C3CC3C#N)c[nH]c12` (single isomer, unassigned) [Example 277-1-1, 2-[(4-Chlorophenyl){5-fluoro-7-[(methylsulfonyl)methyl]-1H-indol-3-yl}methyl]cyclopropane-carbonitrile] the value was above 200; for `CS(=O)(=O)Cc1cc(F)cc2c(C(c3ccc(C(F)(F)F)cc3F)C3CC3C#N)c[nH]c12` (single isomer, unassigned) [Example 271-1-1, 2-({5-Fluoro-7-[(methylsulfonyl)methyl]-1H-indol-3-yl}[2-fluoro-4-(trifluoro-methyl)phenyl]methyl)cyclopropanecarbonitrile], above 200; for `CS(=O)(=O)Cc1cc(F)cc2c(C(c3ccc(Cl)cc3F)C3CC3C#N)c[nH]c12` (single isomer, unassigned) [Example 273-1-2, 2-[(4-Chloro-2-fluorophenyl){5-fluoro-7-[(methylsulfonyl)methyl]-1H-indol-3-yl}methyl]cyclopropanecarbonitrile], above 200.
Consider `CS(=O)(=O)Cc1cccc2c(C(c3ccc(F)cc3)c3ccc(Cl)cc3F)c[nH]c12` (single isomer, unassigned) [Example 118-1, 3-[(4-Chloro-2-fluorophenyl)(4-fluorophenyl)methyl]-7-[(methylsulfonyl)methyl]-1H-indole], for which the Partition ratio r was 250.
For `CS(=O)(=O)Cc1cccc2c(C(CCC#N)c3ccc(C(F)(F)F)cc3)c[nH]c12` (single isomer, unassigned) [Example 56-1, 4-{7-[(Methylsulfonyl)methyl]-1H-indol-3-yl}-4-[4-(trifluoromethyl)phenyl]butanonitrile] the value was 100.

Source of the values: patent publication US8063234B2, “Substituted 7-sulfanylmethyl-, 7-sulfinylmethyl- and 7-sulfonylmethylindoles and the use thereof” (Bayer Schering Pharma Aktiengesellschaft, priority 2008, dated 2011).
